Laboratory results published in patent publication US12473304B2, “Heterocyclic PAD4 inhibitors” (BRISTOL-MYERS SQUIBB COMPANY, priority 2020, dated 2025).

Molecular target: human PAD4 (hPAD4) (Homo sapiens (Human), UniProt Q9UM07)
Assay: RFMS Human PAD4 Functional Assay 1
Type: biochemical
Details: RFMS assay 1; 5 nM hPAD4, 250 μM BAEE substrate, 50 μM calcium, 37° C.
In short: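 Citrullination product read by RapidFire triple-quad MRM against a modified-citrulline internal standard, after TCA stop and 30 min phenyl glyoxal step at 37 °C. Reaction: 250 μM BAEE, 5 nM human PAD4, 90 min at 37 °C, pH 7.5 HEPES buffer with 50 μM calcium and 5 μM TPEN, following 30 min compound–enzyme preincubation (max 50 μM).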

human PAD4 (hPAD4), sequence (Q9UM07 whole entry): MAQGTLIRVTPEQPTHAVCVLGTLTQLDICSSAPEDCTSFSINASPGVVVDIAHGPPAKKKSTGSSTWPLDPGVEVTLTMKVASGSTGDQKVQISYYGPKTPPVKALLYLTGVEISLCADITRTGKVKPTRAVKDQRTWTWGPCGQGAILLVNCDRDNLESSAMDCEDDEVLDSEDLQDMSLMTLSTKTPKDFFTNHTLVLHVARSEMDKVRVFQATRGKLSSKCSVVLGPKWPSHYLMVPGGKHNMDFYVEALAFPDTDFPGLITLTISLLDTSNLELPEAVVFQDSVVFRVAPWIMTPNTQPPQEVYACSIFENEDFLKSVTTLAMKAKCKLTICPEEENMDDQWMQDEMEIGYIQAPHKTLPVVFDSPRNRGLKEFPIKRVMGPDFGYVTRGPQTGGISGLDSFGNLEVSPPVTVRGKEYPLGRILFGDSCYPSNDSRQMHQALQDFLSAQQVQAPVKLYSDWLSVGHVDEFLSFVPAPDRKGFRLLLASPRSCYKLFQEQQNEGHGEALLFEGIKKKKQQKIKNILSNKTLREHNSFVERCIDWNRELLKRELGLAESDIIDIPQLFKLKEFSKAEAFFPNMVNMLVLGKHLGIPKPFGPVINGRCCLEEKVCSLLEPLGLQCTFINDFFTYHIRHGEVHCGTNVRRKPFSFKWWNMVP

Going from `COc1cc(C(=O)N2CC3CCC2[C@H]3N)cn2nc(-c3cc4ccnc(OC[C@H]5CCC(=O)N5)c4n3CC3CC3)c(C)c12` (stereo in doubt) [Example 607, (5R)-5-(((2-(6-((7S)-7-Amino-2-azabicyclo[2.2.1]heptane-2-carbonyl)-4-methoxy-3-methylpyrazolo[1,5-a]pyridin-2-yl)-1-(cyclopropylmethyl)-1H-pyrrolo[2,3-c]pyridin-7-yl)oxy)methyl)pyrrolidin-2-one] to `COc1cc(C(=O)N2CC3CCC2[C@@H]3N)cn2nc(-c3cc4ccc(C5CC5)nc4n3CC3CC3)c(C)c12` (stereo partly drawn) [Example 6, ((7R)-7-Amino-2-azabicyclo[2.2.1]heptan-2-yl)(2-(6-cyclopropyl-1-(cyclopropylmethyl)-1H-pyrrolo[2,3-b]pyridin-2-yl)-4-methoxy-3-methylpyrazolo[1,5-a]pyridin-6-yl)methanone], the IC50 falls from 50 nM to 32 nM (1.6-fold). The second is the more potent here.

`COc1cc(C(=O)N2CC3CCC2[C@@H]3N)cn2nc(-c3cc4cccnc4n3CC3CC3)c(C)c12` (stereo partly drawn) [Example 1, ((7R)-7-Amino-2-azabicyclo[2.2.1]heptan-2-yl)(2-(1-(cyclopropylmethyl)-1H-pyrrolo[2,3-b]pyridin-2-yl)-4-methoxy-3-methylpyrazolo[1,5-a]pyridin-6-yl)methanone] and `COc1cc(C(=O)N2CC3CCC2[C@@H]3N)cn2nc(-c3cc4ccc(Cl)nc4n3CC3CC3)c(C)c12` (stereo partly drawn) [Example 2, ((7R)-7-Amino-2-azabicyclo[2.2.1]heptan-2-yl)(2-(6-chloro-1-(cyclopropylmethyl)-1H-pyrrolo[2,3-b]pyridin-2-yl)-4-methoxy-3-methylpyrazolo[1,5-a]pyridin-6-yl)methanone] are within 1.5-fold of each other in IC50: 280 nM for the first, 380 nM for the second.

Compared with `COc1cc(C(=O)N2CC3CCC2[C@@H]3N)cn2nc(-c3cc4ccc(-c5ccc6c(c5)C(=O)NC6)nc4n3CC3CC3)c(C)c12` (stereo partly drawn) [Example 3, 6-(2-(6-((7R)-7-Amino-2-azabicyclo[2.2.1]heptane-2-carbonyl)-4-methoxy-3-methylpyrazolo[1,5-a]pyridin-2-yl)-1-(cyclopropylmethyl)-1H-pyrrolo[2,3-b]pyridin-6-yl)isoindolin-1-one], `COc1cc(C(=O)N2CC3CCC2[C@@H]3N)cn2nc(-c3cc4ccc(-c5ccc6c(c5)CNC6=O)nc4n3CC3CC3)c(C)c12` (stereo partly drawn) [Example 5, 5-(2-(6-((7R)-7-Amino-2-azabicyclo[2.2.1]-heptane-2-carbonyl)-4-methoxy-3-methylpyrazolo[1,5-a]pyridin-2-yl)-1-(cyclopropylmethyl)-1H-pyrrolo[2,3-b]pyridin-6-yl)isoindolin-1-one] is 2.2-fold lower in IC50: 60 nM for the first, 27 nM for the second. The second is the more potent here.

First: COc1cc(C(=O)N2CC3CCC2[C@@H]3N)cn2nc(-c3cc4ccc(C)nc4n3CC3CC3)c(C)c12 (stereo partly drawn) [Example 4, ((7R)-7-Amino-2-azabicyclo[2.2.1]heptan-2-yl)(2-(1-(cyclopropylmethyl)-6-methyl-1H-pyrrolo[2,3-b]pyridin-2-yl)-4-methoxy-3-methylpyrazolo[1,5-a]pyridin-6-yl)methanone]
Second: COc1cc(C(=O)N2CC3CCC2[C@@H]3N)cn2nc(-c3cc4ccc(N5CC(OC)C5)nc4n3CC3CC3)c(C)c12 (stereo partly drawn) [Example 13, ((7R)-7-Amino-2-azabicyclo[2.2.1]heptan-2-yl)(2-(1-(cyclopropylmethyl)-6-(3-methoxyazetidin-1-yl)-1H-pyrrolo[2,3-b]pyridin-2-yl)-4-methoxy-3-methylpyrazolo[1,5-a]pyridin-6-yl)methanone]
The IC50 of the first is 2.4-fold lower: 68 nM for the first, 163 nM for the second.

Compared with `COc1cc(C(=O)N2CC3CCC2[C@@H]3N)cn2nc(-c3cc4ccc(-c5cnn(C(C)C)c5)nc4n3CC3CC3)c(C)c12` (stereo partly drawn) [Example 7, ((7R)-7-Amino-2-azabicyclo[2.2.1]heptan-2-yl)(2-(1-(cyclopropylmethyl)-6-(1-isopropyl-1H-pyrazol-4-yl)-1H-pyrrolo[2,3-b]pyridin-2-yl)-4-methoxy-3-methylpyrazolo[1,5-a]pyridin-6-yl)methanone], `COc1cc(C(=O)N2CC3CCC2[C@@H]3N)cn2nc(-c3cc4ccc(-c5ccn6c(C)nnc6c5)nc4n3CC3CC3)c(C)c12` (stereo partly drawn) [Example 8, ((7R)-7-Amino-2-azabicyclo[2.2.1]heptan-2-yl)(2-(1-(cyclopropylmethyl)-6-(3-methyl-[1,2,4]triazolo[4,3-a]pyridin-7-yl)-1H-pyrrolo[2,3-b]pyridin-2-yl)-4-methoxy-3-methylpyrazolo[1,5-a]pyridin-6-yl)methanone] is 11-fold lower in IC50: 412 nM for the first, 37 nM for the second.

`COc1cc(C(=O)N2CC3CCC2[C@@H]3N)cn2nc(-c3cc4ccc(-c5cccc(O)c5F)nc4n3CC3CC3)c(C)c12` (stereo partly drawn) [Example 9, ((7R)-7-Amino-2-azabicyclo[2.2.1]heptan-2-yl)(2-(1-(cyclopropylmethyl)-6-(2-fluoro-3-hydroxyphenyl)-1H-pyrrolo[2,3-b]pyridin-2-yl)-4-methoxy-3-methylpyrazolo[1,5-a]pyridin-6-yl)methanone] and `COc1cc(C(=O)N2CC3CCC2[C@@H]3N)cn2nc(-c3cc4ccc(-c5ccc(O)c(F)c5)nc4n3CC3CC3)c(C)c12` (stereo partly drawn) [Example 10, ((7R)-7-Amino-2-azabicyclo[2.2.1]heptan-2-yl)(2-(1-(cyclopropylmethyl)-6-(3-fluoro-4-hydroxyphenyl)-1H-pyrrolo[2,3-b]pyridin-2-yl)-4-methoxy-3-methylpyrazolo[1,5-a]pyridin-6-yl)methanone] are within 1.5-fold of each other in IC50: 120 nM for the first, 159 nM for the second.

Compared with `COc1cc(C(=O)N2CC3CCC2[C@@H]3N)cn2nc(-c3cc4ccc(-c5ccc(OC(F)F)cc5)nc4n3CC3CC3)c(C)c12` (stereo partly drawn) [Example 11, ((7R)-7-Amino-2-azabicyclo[2.2.1]heptan-2-yl)(2-(1-(cyclopropylmethyl)-6-(4-(difluoromethoxy)phenyl)-1H-pyrrolo[2,3-b]pyridin-2-yl)-4-methoxy-3-methylpyrazolo[1,5-a]pyridin-6-yl)methanone], `COc1cc(C(=O)N2CC3CCC2[C@@H]3N)cn2nc(-c3cc4ccc(-c5ccc(OC(F)F)c(F)c5)nc4n3CC3CC3)c(C)c12` (stereo partly drawn) [Example 12, ((7R)-7-Amino-2-azabicyclo[2.2.1]heptan-2-yl)(2-(1-(cyclopropylmethyl)-6-(4-(difluoromethoxy)-3-fluorophenyl)-1H-pyrrolo[2,3-b]pyridin-2-yl)-4-methoxy-3-methylpyrazolo[1,5-a]pyridin-6-yl)methanone] is 1.7-fold higher in IC50: 1370 nM for the first, 2320 nM for the second. The first is the more potent here.

First: COc1cc(C(=O)N2C[C@H](N)C[C@@H](F)C2)cn2nc(-c3cc4cccnc4n3CC3CC3)c(C)c12 [Example 14, ((3R,5R)-3-Amino-5-fluoropiperidin-1-yl)(2-(1-(cyclopropylmethyl)-1H-pyrrolo[2,3-b]pyridin-2-yl)-4-methoxy-3-methylpyrazolo[1,5-a]pyridin-6-yl)methanone]
Second: COc1cc(C(=O)N2C[C@H](N)C[C@@H](F)C2)cn2nc(-c3cc4ccc(C)nc4n3CC3CC3)c(C)c12 [Example 17, ((3R,5R)-3-Amino-5-fluoropiperidin-1-yl)(2-(1-(cyclopropylmethyl)-6-methyl-1H-pyrrolo[2,3-b]pyridin-2-yl)-4-methoxy-3-methylpyrazolo[1,5-a]pyridin-6-yl)-methanone]
The IC50 of the first is 12-fold higher: 906 nM for the first, 75 nM for the second.

Going from `COc1cc(C(=O)N2C[C@H](N)C[C@@H](F)C2)cn2nc(-c3cc4ccc(-c5ccc6c(c5)C(=O)NC6)nc4n3CC3CC3)c(C)c12` [Example 16, 6-(2-(6-((3R,5R)-3-Amino-5-fluoropiperidine-1-carbonyl)-4-methoxy-3-methylpyrazolo[1,5-a]pyridin-2-yl)-1-(cyclopropylmethyl)-1H-pyrrolo[2,3-b]pyridin-6-yl)isoindolin-1-one] to `COc1cc(C(=O)N2C[C@H](N)C[C@@H](F)C2)cn2nc(-c3cc4ccc(-c5ccc6c(c5)CNC6=O)nc4n3CC3CC3)c(C)c12` [Example 20, 5-(2-(6-((3R,5R)-3-Amino-5-fluoropiperidine-1-carbonyl)-4-methoxy-3-methylpyrazolo[l,5-a]pyridin-2-yl)-1-(cyclopropylmethyl)-1H-pyrrolo[2,3-b]pyridin-6-yl)isoindolin-1-one], the IC50 falls from 407 nM to 116 nM (3.5-fold). The second is the more potent here.

Compared with `COc1cc(C(=O)N2C[C@H](N)C[C@@H](F)C2)cn2nc(-c3cc4ccc(C5CC5)nc4n3CC3CC3)c(C)c12` [Example 19, ((3R,5R)-3-Amino-5-fluoropiperidin-1-yl)(2-(6-cyclopropyl-1-(cyclopropylmethyl)-1H-pyrrolo[2,3-b]pyridin-2-yl)-4-methoxy-3-methylpyrazolo[1,5-a]pyridin-6-yl)methanone], `COc1cc(C(=O)N2C[C@H](N)C[C@@H](F)C2)cn2nc(-c3cc4ccc(-c5ccn6c(C)nnc6c5)nc4n3CC3CC3)c(C)c12` [Example 21, ((3R,5R)-3-Amino-5-fluoropiperidin-1-yl)(2-(1-(cyclopropylmethyl)-6-(3-methyl-[1,2,4]triazolo[4,3-a]pyridin-7-yl)-1H-pyrrolo[2,3-b]pyridin-2-yl)-4-methoxy-3-methylpyrazolo[1,5-a]pyridin-6-yl)methanone] is 1.8-fold lower in IC50: 168 nM for the first, 91 nM for the second. The second is the more potent here.

Going from `COc1cc(C(=O)N2CC3CCC2[C@@H]3N)cn2nc(-c3cc4ccccc4n3CC3CC3)c(C)c12` (stereo partly drawn) [Example 22, ((7R)-7-Amino-2-azabicyclo[2.2.1]heptan-2-yl)(2-(1-(cyclopropylmethyl)-1H-indol-2-yl)-4-methoxy-3-methylpyrazolo[1,5-a]pyridin-6-yl)methanone] to `COc1cc(C(=O)N2CC3CCC2[C@@H]3N)cn2nc(-c3cc4ccc(-c5ccc6c(c5)C(=O)NC6)cc4n3CC3CC3)c(C)c12` (stereo partly drawn) [Example 23, 6-(2-(6-((7R)-7-Amino-2-azabicyclo[2.2.1]heptane-2-carbonyl)-4-methoxy-3-methylpyrazolo[1,5-a]pyridin-2-yl)-1-(cyclopropylmethyl)-1H-indol-6-yl)isoindolin-1-one], the IC50 falls from 2150 nM to 108 nM (20-fold).

With `COc1cc(C(=O)N2CC3CCC2[C@@H]3N)cn2nc(-c3cc4ccc(-c5ccc6c(c5)CNC6=O)cc4n3CC3CC3)c(C)c12` (stereo partly drawn) [Example 24, 5-(2-(6-((7R)-7-Amino-2-azabicyclo[2.2.1]heptane-2-carbonyl)-4-methoxy-3-methylpyrazolo[1,5-a]pyridin-2-yl)-1-(cyclopropylmethyl)-1H-indol-6-yl)isoindolin-1-one] the IC50 was 31 nM.
